Test system: HCT-116 cells
Test: In vitro cytotoxicity assay
Format: cell-based
Conditions: Homo sapiens, HCT-116, 72 h, read-out: IC50, HCT-116 cell proliferation

SMILES: C[C@H](O)C(=O)N1CCC(CCn2c(Sc3cc4c(cc3Br)OCO4)nc3c(N)ncnc32)CC1 [MPC-3100, (2S)-1-[4-(2-{6-amino-8-[(6-bromo-1,3-benzodioxol-5-yl)sulfanyl]-9H-purin-9-yl}ethyl)piperidin-1-yl]-2-hydroxypropan-1-one]
- IC50: 780 nM

Reference: publication PMC10294771 (Journal of Enzyme Inhibition and Medicinal Chemistry, 2023)
